The record followed here is patent US20160109352A1, “METHODS AND APPARATUS FOR HIGH-THROUGHPUT LABEL-FREE CELL ASSAY” (INDUSTRY-ACADEMIC COOPERATION FOUNDATION YONSEI UNIVERSITY, priority 2014, published 2016).

The structures appear in SMILES notation.

This assay relates to cells. As to the kind of experiment: label-free cell assay by optical interference phase microscope. Type of assay: cell-based. As to conditions: for change in measurement values (phase) depending on concentration, by time: dosed in different concentration, measured by time (FIG. 5). An excerpt: FIG. 4 is a view showing an example of an image of cells photographed by an optical interference phase microscope beneath the transparent medium of the high-throughput label-free cell assay system.
FIG. 5 is a view showing an example of a measurement value by time in the high-throughput label-free cell assay system in a case that picolinic acid and histamine are separately given to cells in different concentration.

`NCCc1c[nH]cn1` [histamine]: the “change in measurement values (phase) depending on concentration, by time” value is “remarkable changes in measurement values depending on concentration were observed”.

Turning to `O=C(O)c1ccccn1` [picolinic acid], the “change in measurement values (phase) depending on concentration, by time” value is given as “remarkable changes in measurement values depending on concentration were observed”. Where the note is “half an hour after dosing, untreated cells showed no change after 30 minutes”, the “number of observed cells in optical interference phase image” value is “remarkably reduced”.
